This note sets out measurements from patent US9957264B2 (Merck Sharp & Dohme Corp., priority 2013, dated 2018).

Test [1] has as its target JAK1 (recombinant purified GST-tagged catalytic domain) (Homo sapiens (Human), UniProt P23458). Kind of test: Jak Biochemical HTRF Assay (JAK1). Conditions: [ATP] 31.8 μM. In outline:
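Read-out is the 665/615 nm time-resolved FRET ratio from Eu-pY20 antibody and streptavidin-Dylight 650 bound to phosphorylated biotin-peptide. Reactions ran 120 min at room temperature after ATP start. Inhibition normalized to untreated controls gave IC50 via 4-parameter fit.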
A general note: TR-FRET usually uses a lanthanide donor and a delayed reading to cut background.

Test [2] concerns the target JAK2 (recombinant purified GST-tagged catalytic domain) (Homo sapiens (Human), UniProt O60674). Kind of test: Jak Biochemical HTRF Assay (JAK2). Conditions: [ATP] 8.5 μM. On the procedure:
Jak Biochemical HTRF Assay Protocol
The ability of compounds to inhibit the activity of JAK1, JAK2, JAK3, and Tyk2 was measured using a recombinant purified GST-tagged catalytic domain for each enzyme (Invitrogen JAK1 #M4290, JAK2 #M4290, JAK3 #M4290, Tyk2 #M4290) in an HTRF format biochemical assay. […] The basic assay protocol is as follows: First, 250 nL of diluted compounds in DMSO were dispensed into the wells of a dry 384-well Black plate (Greiner #781076) using a Labcyte Echo 555 acoustic dispenser. Subsequent reagent additions employed an Agilent Bravo. […] After equilibration, 2 μL of 10×ATP in 1× assay buffer was added to initiate the kinase reaction and the plates were shaken and then incubated at room temperature for 120 minutes. […] Plates were shaken and centrifuged and then incubated 60 minutes at room temperature and then read on a Perkin Elmer Envision (λex=337 nm, λem=665 and 615 nm, TRF delay time=20 μs). HTRF signal=10,000*665 nm reading/615 nm reading. After normalization to untreated controls, the percent inhibition of the HTRF signal at each compound concentration was calculated. The plot of percent inhibition versus the log of compound concentration was fit with a 4-parameter dose response equation to calculate IC50 values.
Final reaction conditions were:
Examples of the instant invention were evaluated in JAK1 and JAK2 in vitro binding assays as described above.

The structures appear in SMILES notation. pIC50: −log10 of the molar value.

Chain of JAK2 (recombinant purified GST-tagged catalytic domain) (O60674 849-1124): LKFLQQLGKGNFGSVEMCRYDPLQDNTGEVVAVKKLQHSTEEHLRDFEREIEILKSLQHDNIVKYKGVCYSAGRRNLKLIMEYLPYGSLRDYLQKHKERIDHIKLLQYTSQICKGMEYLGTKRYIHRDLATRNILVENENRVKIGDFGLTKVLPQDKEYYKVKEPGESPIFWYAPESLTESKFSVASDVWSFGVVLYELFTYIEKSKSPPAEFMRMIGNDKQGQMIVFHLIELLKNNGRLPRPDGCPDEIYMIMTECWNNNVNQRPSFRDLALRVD
Chain of JAK1 (recombinant purified GST-tagged catalytic domain) (P23458 875-1153): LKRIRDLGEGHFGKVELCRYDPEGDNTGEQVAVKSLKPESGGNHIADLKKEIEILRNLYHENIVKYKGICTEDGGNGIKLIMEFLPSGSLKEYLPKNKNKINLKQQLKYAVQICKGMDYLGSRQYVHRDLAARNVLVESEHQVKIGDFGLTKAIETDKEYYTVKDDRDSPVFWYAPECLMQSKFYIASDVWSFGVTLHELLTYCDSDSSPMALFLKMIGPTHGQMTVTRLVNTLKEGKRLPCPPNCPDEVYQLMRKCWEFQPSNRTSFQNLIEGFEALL

In the case of `CC(C)(C)N1Cc2cc(Nc3nn(C4(CC#N)CCCCC4)c4cc[nH]c(=O)c34)ccc2S1(=O)=O` [Example 5-80, 2-(1-(3-((2-(tert-butyl)-1,1-dioxido-2,3-dihydrobenzo[d]isothiazol-5-yl)amino)-4-oxo-4,5-dihydro-1H-pyrazolo[4,3-c]pyridin-1-yl)cyclohexyl)acetonitrile], the results for the pIC50 in test [1] and in test [2] were 10.10 and 8.92, respectively.

With `N#CCC1(n2nc(Nc3ccc(C(F)(F)F)cc3)c3c(=O)[nH]ccc32)CCC(O)CC1` (stereo not drawn) [Example 18-5, (cis and trans) 2-(4-hydroxy-1-(4-oxo-3-((4-(trifluoromethyl)phenyl)amino)-4,5-dihydro-1H-pyrazolo[4,3-c]pyridin-1-yl)cyclohexyl)acetonitrile], the pIC50 in test [1] was 8.38; in test [2], 7.07.

Regarding `CC(O)(c1ccc(Nc2nn([C@]3(CC#N)CCCOC3)c3cc[nH]c(=O)c23)cc1)C(F)(F)F` (single isomer, unassigned) [Example 5-110, {(3S)-3-[4-oxo-3-({4-[(1S or 1R)-2,2,2-trifluoro-1-hydroxy-1-methylethyl]phenyl}amino)-4,5-dihydro-1H-pyrazolo[4,3-c]pyridin-1-yl]tetrahydro-2H-pyran-3-yl}acetonitrile], the pIC50 was 9.80 in test [1] and 9.23 in test [2].

As to `Cc1cc(Nc2nn(C3(CC#N)CCN(C(=O)OC(C)(C)C)CC3)c3cc[nH]c(=O)c23)ccc1C(=O)N1CCC(F)(F)CC1` [Example 21-11, tert-butyl 4-(cyanomethyl)-4-(3-((4-(4,4-difluoropiperidine-1-carbonyl)-3-methylphenyl)amino)-4-oxo-4,5-dihydro-1H-pyrazolo[4,3-c]pyridin-1-yl)piperidine-1-carboxylate], the results for the negative logarithm of the IC50 (pIC50) in test [1] and in test [2] were 9.37 and 9.42, respectively.

For the molecule `CC(C)(C)N1Cc2cc(Nc3nn([C@]4(CC#N)CC[C@H](N5CC(F)C5)CC4)c4cc[nH]c(=O)c34)ccc2S1(=O)=O` [Example 18-36], the negative logarithm of the IC50 (pIC50) in test [1] is 9.08; in test [2], 8.16.

As for `N#CCC1(n2nc(Nc3ccc(C(N)C(F)(F)F)cc3)c3c(=O)[nH]ccc32)CCCC1` (single isomer, unassigned) [Example 5-88, (R or S)-2-(1-(3-((4-(1-amino-2,2,2-trifluoroethyl)phenyl)amino)-4-oxo-4,5-dihydro-1H-pyrazolo[4,3-c]pyridin-1-yl)cyclopentyl)acetonitrile], the pIC50 in test [1] is 9.34; in test [2] it was 8.81.

For `CC(C)(C)S(=O)(=O)c1ccc(Nc2nn([C@@]3(CC#N)CCOC3)c3cc[nH]c(=O)c23)cc1` (single isomer, unassigned) [Example 5-249, (S or R)-2-(3-(3-((4-(tert-butylsulfonyl)phenyl)amino)-4-oxo-4,5-dihydro-1H-pyrazolo[4,3-c]pyridin-1-yl)tetrahydrofuran-3-yl)acetonitrile], the figures for the negative logarithm of the IC50 (pIC50) in test [1] and in test [2] were 8.95 and 8.61, respectively.

For `CC(C)(C)OC(=O)[C@H]1CC[C@@](CC#N)(n2nc(Nc3ccc([C@H](N)C(F)(F)F)cc3)c3c(=O)[nH]ccc32)CO1` (single isomer, unassigned) [Example 5-52, (2R,5S)-tert-butyl 5-(3-((4-((S or R)-1-amino-2,2,2-trifluoroethyl)phenyl)amino)-4-oxo-4,5-dihydro-1H-pyrazolo[4,3-c]pyridin-1-yl)-5-(cyanomethyl) tetrahydro-2H-pyran-2-carboxylate], the negative-log IC50 (pIC50) was 7.93 in test [1] and 7.52 in test [2].

On to `CC(C)(C)OC(=O)[C@H]1CC[C@](CC#N)(n2nc(Nc3ccc(S(C)(=O)=O)cc3)c3c(=O)[nH]ccc32)CO1` [Example 5-40, (2R,5R)-tert-butyl 5-(cyanomethyl)-5-(3-((4-(methylsulfonyl)phenyl)amino)-4-oxo-4,5-dihydro-1H-pyrazolo [4,3-c]pyridin-1-yl) tetrahydro-2H-pyran-2-carboxylate], for which the figures for the negative-log IC50 (pIC50) in test [1] and in test [2] were 8.69 and 7.84, respectively.

In the case of `CC(C)(C)OC(=O)N1CCC(CC#N)(n2nc(Nc3ccc([C@H](O)C(F)(F)F)cc3)c3c(=O)[nH]ccc32)CC1` (single isomer, unassigned) [Example 5-2, tert-butyl 4-(cyanomethyl)-4-[4-oxo-3-({4-[(1S or 1R)-2,2,2-trifluoro-1-hydroxyethyl]phenyl}amino)-4,5-dihydro-1H-pyrazolo[4,3-c]pyridin-1-yl]piperidine-1-carboxylate], the pIC50 in test [1] was 9.68; in test [2] it was 9.36.

Take `CS(=O)(=O)c1ccc(Nc2nn(C3(CC#N)CCN(c4ccc(Br)cn4)CC3)c3cc[nH]c(=O)c23)cc1` [Example 15-8, 2-(1-(5-bromopyridin-2-yl)-4-(3-((4-(methylsulfonyl)phenyl)amino)-4-oxo-4,5-dihydro-1H-pyrazolo[4,3-c]pyridin-1-yl)piperidin-4-yl)acetonitrile]: the negative-log IC50 (pIC50) in test [1] is 10.05; in test [2], 9.39.

Consider `CN(C)S(=O)(=O)c1ccc(Nc2nn(C3(CC#N)CCN(C(=O)CC(C)(C)C)CC3)c3cc[nH]c(=O)c23)cc1` [Example 9-23, 4-({1-[4-(cyanomethyl)-1-(3,3-dimethylbutanoyl)piperidin-4-yl]-4-oxo-4,5-dihydro-1H-pyrazolo[4,3-c]pyridin-3-yl}amino)-N,N-dimethylbenzenesulfonamide], for which the figures for the pIC50 in test [1] and in test [2] were 9.85 and 8.88, respectively.

Turning to `CN(C(=O)[C@@H]1CC[C@@](CC#N)(n2nc(Nc3ccc4c(c3)CN(C(C)(C)C)S4(=O)=O)c3c(=O)[nH]ccc32)CO1)C(C)(C)C` [Example 19-2, (2S,5S)-N-tert-butyl-5-{3-[(2-tert-butyl-1,1-dioxido-2,3-dihydro-1,2-benzisothiazol-5-yl)amino]-4-oxo-4,5-dihydro-1H-pyrazolo[4,3-c]pyridin-1-yl}-5-(cyanomethyl)-N-methyltetrahydro-2H-pyran-2-carboxamide], the pIC50 is 10.00 in test [1] and 8.68 in test [2].

In the case of `N#CCC1(n2nc(Nc3ccc(S(=O)(=O)N4CCC4)cc3)c3c(=O)[nH]ccc32)CCCC1` [Example 5-132, 2-(1-(3-((4-(azetidin-1-ylsulfonyl)phenyl)amino)-4-oxo-4,5-dihydro-1H-pyrazolo[4,3-c]pyridin-1-yl)cyclopentyl)acetonitrile], the values for the negative logarithm of the IC50 (pIC50) in test [1] and in test [2] were 9.41 and 9.17, respectively.

As for `CC(C)OC(=O)C(C)(C)C(O)(c1ccc(Nc2nn([C@]3(CC#N)CC[C@@H](C(=O)OC(C)(C)C)OC3)c3cc[nH]c(=O)c23)cc1)C(F)(F)F` (single isomer, unassigned) [Example 5-163, (2S,5S)-tert-butyl 5-(cyanomethyl)-5-(4-oxo-3-((4-((S or R)-1,1,1-trifluoro-2-hydroxy-4-isopropoxy-3,3-dimethyl-4-oxobutan-2-yl)phenyl)amino)-4,5-dihydro-1H-pyrazolo[4,3-c]pyridin-1-yl)tetrahydro-2H-pyran-2-carboxylate], the figures for the negative logarithm of the IC50 (pIC50) in test [1] and in test [2] were 8.71 and 8.66, respectively.

Take `N#CC[C@]1(n2nc(Nc3ccc([C@]4(C(F)(F)F)CCCCN4)cc3)c3c(=O)[nH]ccc32)CCOC[C@H]1F` (single isomer, unassigned) [Example 5-263, 2-((3S,4S or 3R,4R)-3-fluoro-4-(4-oxo-3-((4-((S or R)-2-(trifluoromethyl)piperidin-2-yl)phenyl)amino)-4,5-dihydro-1H-pyrazolo[4,3-c]pyridin-1-yl)tetrahydro-2H-pyran-4-yl)acetonitrile]: the results for the pIC50 in test [1] and in test [2] were 9.32 and 9.11, respectively.

In the case of `CC(O)(c1ccc(Nc2nn([C@@]3(CC#N)CCCC[C@H]3F)c3cc[nH]c(=O)c23)cc1)C(F)(F)F` (single isomer, unassigned) [Example 5-86, {(1R,2R)-2-fluoro-1-[4-oxo-3-({4-[(1R or 1S)-2,2,2-trifluoro-1-hydroxy-1-methylethyl]phenyl}amino)-4,5-dihydro-1H-pyrazolo[4,3-c]pyridin-1-yl]cyclohexyl}acetonitrile], the pIC50 in test [1] is 10.15; in test [2], 9.96.

Take `CC(C)(C)OC(=O)[C@@H]1CC[C@@](CC#N)(n2nc(Nc3ccc(C(C)(O)C(F)(F)F)cc3)c3c(=O)[nH]ccc32)CO1` (single isomer, unassigned) [Example 5-171, (2S,5S)-tert-butyl 5-(cyanomethyl)-5-(4-oxo-3-((4-((S or R)-1,1,1-trifluoro-2-hydroxypropan-2-yl)phenyl)amino)-4,5-dihydro-1H-pyrazolo[4,3-c]pyridin-1-yl)tetrahydro-2H-pyran-2-carboxylate]: the negative-log IC50 (pIC50) is 10.15 in test [1] and 9.74 in test [2].

On to `CN(C)S(=O)(=O)c1ccc(Nc2nn(C3(CC#N)CCN(Cc4ccc(C(F)(F)F)cc4)CC3)c3cc[nH]c(=O)c23)cc1` [Example 8-3, 4-[(1-{4-(cyanomethyl)-1-[4-(trifluoromethyl)benzyl]piperidin-4-yl}-4-oxo-4,5-dihydro-1H-pyrazolo[4,3-c]pyridin-3-yl)amino]-N,N-dimethylbenzenesulfonamide], for which the negative logarithm of the IC50 (pIC50) in test [1] is 8.63; in test [2], 8.06.

The pIC50 is the IC50 on a negative log10 scale, so that one unit is a factor of ten.
